Results: patent US20010053771A1, “USE OF GLUCOSAMINE AND CLUCOSAMINE DERIVATIVES FOR QUICK ALLEVIATION OF ITCHING OR LOCALIZED PAIN” (priority 1997, published 2001)

Tests used:
Format in all cases: in vivo, human
[1] = system: patient with a tendinitis due to the practice of bowling sport; experiment: Topical treatment of tendinitis due to bowling (Example 6); details: 6% (w/w) in composition 3
Experimental: Glucosamine or one or more of its derivatives was added in the appropriate amount to one of the following formulations. The compositions thus obtained were tested as described in the Examples. All percentages are by weight (w/w) unless otherwise indicated.
A patient with a tendinitis due to the practice of bowling sport was treated 2 days after the onset of pain with composition 3 containing 6% (w/w) N-acetyl D-glucosamine. Pain relief occurred 25 seconds later.

[2] = system: patient suffering from sore throat caused by β-hemolytic streptococci; experiment: Spray treatment of a patient with sore throat (Example 1)
Experimental: Glucosamine or one or more of its derivatives was added in the appropriate amount to one of the following formulations. The compositions thus obtained were tested as described in the Examples. All percentages are by weight (w/w) unless otherwise indicated. A patient suffering from sore throat caused by β-hemolytic streptococci was treated with a water solution (formulation 1) of N-acetyl-glucosamine (8% w/w). The solution was sprayed into the mouth during 10 seconds in order to treat the infected area. Pain relief occurred already 20 seconds after application and lasted for at least 1,5 hour. 12 hours later the same patient was treated with spray containing glucosamine HCl (9% w/w and 20% glycerol and 10% alcohol in water). Pain relief occurred again very quickly, 36 seconds after, application and lasted for at least 2 hours.

[3] = system: patient with allergy for cats; experiment: Topical treatment of itching from cat allergy (Example 7); details: 5% (w/w) in composition 3
Experimental: Glucosamine or one or more of its derivatives was added in the appropriate amount to one of the following formulations. The compositions thus obtained were tested as described in the Examples. All percentages are by weight (w/w) unless otherwise indicated. A patient with allergy for cats (person) was confronted with a stroked cat (2 years old) in a closed room (6 m×4 m×3 m) during 10 minutes. 8 minutes later itching started all over the forehead and progressed after 15 minutes to the nose (external×internal). The patient was treated on the left side of the forehead with composition 3 and on the right side of the forehead with composition 3 containing 5% (w/w) glucosamine HCl. Itching completely disappeared after 45 seconds on the right side while there was still itching on the left side. The nose was also treated inside and outside with the active cream. Itching decreased drastically already after 50 seconds.

[4] = system: patient suffering from eczema (atopical) on the arm-bends; experiment: Topical treatment of atopical eczema (Example 10); details: 8% (w/w) in composition 3; left arm; person
Experimental: Glucosamine or one or more of its derivatives was added in the appropriate amount to one of the following formulations. The compositions thus obtained were tested as described in the Examples. All percentages are by weight (w/w) unless otherwise indicated. A patient suffering from eczema (atopical) (person) on the arm-bends was treated with composition 3 containing 8% (w/w) glucosamine HCl on the left arm and composition 3 on the right arm. Itching decreased drastically after 15 seconds and lasted during 2 hours only on the left arm. From the above it follows that the therapeutical compositions of the invention can be used to alleviate itching and pain which result from a variety of causes. The relief is obtained very quickly and lasts for a considerable period of time.

[5] = system: patient suffering from arthritis urica; experiment: Topical treatment of arthritis urica (Example 9); details: 9% (w/w) in composition 2; right foot, 4 successive treatments with an interval of 10 minutes; person
Experimental: Glucosamine or one or more of its derivatives was added in the appropriate amount to one of the following formulations. The compositions thus obtained were tested as described in the Examples. All percentages are by weight (w/w) unless otherwise indicated. A patient suffering from arthritis urica, and not taking any medication, was treated with composition 2 containing 9% (w/w) glucosamine HCl all over the affected right foot by 4 successive treatments with an interval of 10 minutes.

[6] = system: child suffering from diaper allergy; experiment: Topical treatment of diaper allergy (Example 5); details: 5% (w/w) in composition 2; applications for 1 week, 3 times a day; male, 8 months
Experimental: Glucosamine or one or more of its derivatives was added in the appropriate amount to one of the following formulations. The compositions thus obtained were tested as described in the Examples. All percentages are by weight (w/w) unless otherwise indicated. […]

[7] = system: patient suffering from herpes simplex type I infection around the nose showing extensive fissures; experiment: Topical treatment of herpes simplex type I lesions around the nose (Example 3); details: 3% (w/w) in formulation 3
Experimental: Glucosamine or one or more of its derivatives was added in the appropriate amount to one of the following formulations. The compositions thus obtained were tested as described in the Examples. All percentages are by weight (w/w) unless otherwise indicated. A patient suffering from herpes simplex type I infection around the nose showing extensive fissures was treated with formulation 3 containing 3% glucosamine sulfate (w/w). Already after 30 seconds pain and itching relief occurred and lasted during 3 hours.

[8] = system: patient suffering from pain in the knee caused by a light collision; experiment: Topical treatment of knee pain after a collision (Example 4); details: 10% (w/w) in formulation 3
Experimental: Glucosamine or one or more of its derivatives was added in the appropriate amount to one of the following formulations. The compositions thus obtained were tested as described in the Examples. All percentages are by weight (w/w) unless otherwise indicated. A patient suffering from pain in the knee caused by a light collision during a car accident was treated with formulation 3 containing 10% (w/w) glucosamine sulfate. Pain relief occurred after 50 seconds and lasted during 3 hours.

[9] = system: patient suffering from tendinitis caused by practicing tennis; experiment: Topical cream treatment of tendinitis caused by tennis (Example 2); details: 5% (w/w) in formulation 2 cream, applied on the skin during 2 minutes; person
Experimental: Glucosamine or one or more of its derivatives was added in the appropriate amount to one of the following formulations. The compositions thus obtained were tested as described in the Examples. All percentages are by weight (w/w) unless otherwise indicated. A patient suffering from tendinitis caused by practicing tennis was treated with formulation 2 containing glucosamine sulphate 5% (w/w). The cream was normally applied on the skin during 2 minutes to allow the penetration. Pain relief occurred already after 50 seconds and lasted for at least 2 hours. After 12 hours the same patient was treated with formulation 2 without glucosamine. There was no pain relief after similar application.

[10] = 8% w/w in water (formulation 1), sprayed into the mouth during 10 seconds, person
[11] = spray 9% w/w with 20% glycerol and 10% alcohol in water, same patient 12 hours later

CC(=O)N[C@H]1C(O)O[C@H](CO)[C@@H](O)[C@@H]1O (stereo partly drawn) [N-acetyl-glucosamine, N-acetyl D-glucosamine]
time to pain relief ([1]; 2 days after the onset of pain, person): 25 s | pain after repeated treatment ([1]; after 5 successive treatments every 2 hours): pain was completely reduced | duration of pain relief [2, 10]: at least 1,5 hour | time to pain relief after application [2, 10]: 20 s

Cl.N[C@H]1C(O)O[C@H](CO)[C@@H](O)[C@@H]1O (stereo partly drawn) [glucosamine HCl, D-glucosamine hydrochloride]
time until itching decreased drastically ([3]; nose treated inside and outside): 50 s | time until itching completely disappeared ([3]; right side of the forehead, person): 45 s | duration of itching decrease [4]: 2 h | time until itching decreased drastically [4]: 15 s | duration of pain relief [2, 11]: at least 2 hours | time to pain relief after application [2, 11]: 36 s | duration of pain relief [5]: 4 h | pain relief [5]: Gradually strong pain relief occurred | relief of itching and pains [6]: always immediate relief of itching and pains

N[C@H]1C(O)O[C@H](CO)[C@@H](O)[C@@H]1O.O=S(=O)(O)O (stereo partly drawn) [glucosamine sulfate, D-glucosamine sulfate]
closure of fissures ([7]; after 5 hours): most of the fissures were closed | duration of pain and itching relief ([7]; person): 3 h | time to pain and itching relief ([7]; person): 30 s | pain after repeated treatment ([8]; after 3 new successive treatments every 4 hours): the pain was completely gone | duration of pain relief ([8]; person): 3 h | time to pain relief ([8]; person): 50 s | duration of pain relief [9]: at least 2 hours | time to pain relief [9]: 50 s
